Experimental data as given in EP3860599B1, “(+)-ALPHA-DIHYDROTETRABENAZINE DOSAGE REGIMEN FOR TREATING MOVEMENT DISORDERS” (Adeptio Pharmaceuticals Limited, priority 2018, dated 2020).
Read-outs that look alike come from different tables or passages of the source.

How the values were obtained:
[1] = Plasma concentrations up to 7 hours after oral dosing of human volunteers, Example 1B; assay type: in vivo; settings: 7.5 mg
Experimental: Volunteers 1 and 2 were the same as volunteers 1 and 2 in Example 1A described above. […] In addition, in all volunteers PET scans were initiated at 6 hours after drug administration and these were stopped at 7 hours after drug administration. […]

[2] = Plasma concentrations after oral dosing (solution in apple juice) of human volunteers, Example 1A; assay type: in vivo; settings: for concentration at 1 h / concentration at 1.5 h / concentration at 2 h / concentration at 3 h / concentration at 0.5 h: human, plasma, po; for concentration at 0.5 h / plasma concentrations: 0.5 h
Experimental: (+)-α-Dihydrotetrabenazine in defined amounts was administered by oral dosing (as a solution in apple juice) to six human volunteers. […] At 60 minutes after drug administration, PET scans were initiated and these were stopped at 120 minutes after drug administration. The experiment was carried out at dosages of 7.5 mg, 15 mg and 22.5 mg. […]

[3] = po, Example 1B subject 1 (112 kg), 7.5 mg oral
[4] = po, Example 1B subject 2 (76 kg), 7.5 mg oral
[5] = po, Example 1B subject 3 (76 kg), 7.5 mg oral
[6] = po, Example 1B subject 4 (95 kg), 7.5 mg oral
[7] = po, Example 1B subject 5 (99 kg), 7.5 mg oral
[8] = po, Example 1B subject 6 (107 kg), 7.5 mg oral
[9] = 7.5 mg, subject 1 (112 kg), 7.5 mg oral
[10] = 7.5 mg, subject 2 (76 kg), 7.5 mg oral
[11] = 7.5 mg, subject 3 (129 kg), 7.5 mg oral
[12] = 7.5 mg, subject 4 (59 kg), 7.5 mg oral
[13] = 7.5 mg, subject 5 (91 kg), 7.5 mg oral
[14] = 7.5 mg, subject 6 (68 kg), 7.5 mg oral
[15] = 15 mg, subject 1 (112 kg), 15 mg oral
[16] = 15 mg, subject 2 (76 kg), 15 mg oral
[17] = 15 mg, subject 3 (129 kg), 15 mg oral
[18] = 15 mg, subject 4 (59 kg), 15 mg oral
[19] = 15 mg, subject 5 (91 kg), 15 mg oral
[20] = 15 mg, subject 6 (68 kg), 15 mg oral
[21] = 22.5 mg, subject 1 (112 kg), 22.5 mg oral
[22] = 22.5 mg, subject 2 (76 kg), 22.5 mg oral
[23] = 22.5 mg, subject 3 (129 kg), 22.5 mg oral
[24] = 22.5 mg, subject 5 (91 kg), 22.5 mg oral
[25] = 22.5 mg, subject 6 (68 kg), 22.5 mg oral

## COc1cc2c(cc1OC)[C@H]1C[C@@H](O)[C@H](CC(C)C)CN1CC2 [(+)-α-dihydrotetrabenazine, (R,R,R)-3-isobutyl-9,10-dimethyloxy-1,3,4,5,7,11b-hexahydro-2H-pyrido[2,1-a]isoquinolin-2-ol]
[1]; oral, after 6 hours following administration of 7.5mg, read-out: blood plasma concentrations
  concentration at 6 h: < 15 ng/mL
[1]; [3]
  concentration at 2 h: 8.7 ng/mL
  concentration at 4 h: 6.01 ng/mL
  concentration at 7 h: 3.65 ng/mL
[1]; po, Example 1B subject 1 (112 kg), 7.5 mg oral, 6 h, read-out: plasma concentrations
  concentration at 6 h: 4.54 ng/mL
[1]; [4]
  concentration at 2 h: 11.7 ng/mL
  concentration at 4 h: 17.5 ng/mL
  concentration at 7 h: 11.6 ng/mL
[1]; po, Example 1B subject 2 (76 kg), 7.5 mg oral, 6 h, read-out: plasma concentrations
  concentration at 6 h: 13.4 ng/mL
[1]; [5]
  concentration at 2 h: 12.8 ng/mL
  concentration at 4 h: 7.92 ng/mL
  concentration at 7 h: 4.84 ng/mL
[1]; po, Example 1B subject 3 (76 kg), 7.5 mg oral, 6 h, read-out: plasma concentrations
  concentration at 6 h: 5.57 ng/mL
[1]; [6]
  concentration at 1 h: 21.4 ng/mL
  concentration at 2 h: 13.9 ng/mL
  concentration at 3 h: 10.6 ng/mL
  concentration at 4 h: 7.81 ng/mL
  concentration at 5 h: 6.59 ng/mL
  concentration at 7 h: 4.91 ng/mL
[1]; po, Example 1B subject 4 (95 kg), 7.5 mg oral, 6 h, read-out: plasma concentrations
  concentration at 6 h: 4.92 ng/mL
[1]; [7]
  concentration at 1 h: 5.64 ng/mL
  concentration at 2 h: 7.59 ng/mL
  concentration at 3 h: 5.84 ng/mL
  concentration at 4 h: 4.58 ng/mL
  concentration at 5 h: 3.66 ng/mL
  concentration at 7 h: 2.47 ng/mL
[1]; po, Example 1B subject 5 (99 kg), 7.5 mg oral, 6 h, read-out: plasma concentrations
  concentration at 6 h: 3.35 ng/mL
[1]; [8]
  concentration at 1 h: 4.86 ng/mL
  concentration at 2 h: 6.3 ng/mL
  concentration at 3 h: 6.69 ng/mL
  concentration at 4 h: 5.61 ng/mL
  concentration at 5 h: 5.19 ng/mL
  concentration at 7 h: 3.36 ng/mL
[1]; po, Example 1B subject 6 (107 kg), 7.5 mg oral, 6 h, read-out: plasma concentrations
  concentration at 6 h: 4.44 ng/mL
[2]; [9]
  concentration at 1 h: 0.94 ng/mL
  concentration at 1.5 h: 2.39 ng/mL
  concentration at 2 h: 2.44 ng/mL
  concentration at 3 h: 3.01 ng/mL
[2]; [10]
  concentration at 0.5 h: 0.531 ng/mL
  concentration at 1 h: 13.7 ng/mL
  concentration at 1.5 h: 10.8 ng/mL
  concentration at 2 h: 14 ng/mL
  concentration at 3 h: 22.2 ng/mL
[2]; [11]
  concentration at 0.5 h: 0.216 ng/mL
  concentration at 1 h: 4.35 ng/mL
  concentration at 1.5 h: 6.91 ng/mL
  concentration at 2 h: 5.03 ng/mL
  concentration at 3 h: 6.96 ng/mL
[2]; [12]
  concentration at 0.5 h: 8.43 ng/mL
  concentration at 1 h: 15 ng/mL
  concentration at 1.5 h: 20.7 ng/mL
  concentration at 2 h: 17.6 ng/mL
  concentration at 3 h: 19.6 ng/mL
[2]; [13]
  concentration at 0.5 h: 6.68 ng/mL
  concentration at 1 h: 9.8 ng/mL
  concentration at 1.5 h: 13.5 ng/mL
  concentration at 2 h: 10.7 ng/mL
  concentration at 3 h: 11.2 ng/mL
[2]; [14]
  concentration at 1 h: 3.77 ng/mL
  concentration at 1.5 h: 3.06 ng/mL
  concentration at 2 h: 4.33 ng/mL
  concentration at 3 h: 9.18 ng/mL
[2]; [15]
  concentration at 0.5 h: 4.02 ng/mL
  concentration at 1 h: 11.1 ng/mL
  concentration at 1.5 h: 10.7 ng/mL
  concentration at 2 h: 10.2 ng/mL
  concentration at 3 h: 10.6 ng/mL
[2]; [16]
  concentration at 0.5 h: 7.99 ng/mL
  concentration at 1 h: 22.8 ng/mL
  concentration at 1.5 h: 46.4 ng/mL
  concentration at 2 h: 35.7 ng/mL
  concentration at 3 h: 46.5 ng/mL
[2]; [17]
  concentration at 0.5 h: 1.2 ng/mL
  concentration at 1 h: 14.3 ng/mL
  concentration at 1.5 h: 17.9 ng/mL
  concentration at 2 h: 12 ng/mL
  concentration at 3 h: 18.2 ng/mL
[2]; [18]
  concentration at 0.5 h: 26.7 ng/mL
  concentration at 1 h: 53.8 ng/mL
  concentration at 1.5 h: 42.5 ng/mL
  concentration at 2 h: 53.3 ng/mL
  concentration at 3 h: 60.2 ng/mL
[2]; [19]
  concentration at 0.5 h: 15.6 ng/mL
  concentration at 1 h: 34.2 ng/mL
  concentration at 1.5 h: 27.1 ng/mL
  concentration at 2 h: 31.8 ng/mL
  concentration at 3 h: 27.1 ng/mL
[2]; [20]
  concentration at 0.5 h: 5.41 ng/mL
  concentration at 1 h: 10.6 ng/mL
  concentration at 1.5 h: 16.1 ng/mL
  concentration at 2 h: 17.4 ng/mL
  concentration at 3 h: 14.9 ng/mL
[2]; [21]
  concentration at 0.5 h: 9.61 ng/mL
  concentration at 1 h: 18 ng/mL
  concentration at 1.5 h: 16.8 ng/mL
  concentration at 2 h: 14.9 ng/mL
  concentration at 3 h: 13.2 ng/mL
[2]; [22]
  concentration at 0.5 h: 5.23 ng/mL
  concentration at 1 h: 21.8 ng/mL
  concentration at 1.5 h: 36.2 ng/mL
  concentration at 2 h: 40.2 ng/mL
  concentration at 3 h: 51.8 ng/mL
[2]; [23]
  concentration at 0.5 h: 9.04 ng/mL
  concentration at 1 h: 34.7 ng/mL
  concentration at 1.5 h: 29.8 ng/mL
  concentration at 2 h: 26.3 ng/mL
  concentration at 3 h: 17.3 ng/mL
[2]; [24]
  concentration at 0.5 h: 55.3 ng/mL
  concentration at 1 h: 45.1 ng/mL
  concentration at 1.5 h: 46.2 ng/mL
  concentration at 2 h: 41.9 ng/mL
  concentration at 3 h: 42.5 ng/mL
[2]; [25]
  concentration at 0.5 h: 5.58 ng/mL
  concentration at 1 h: 8.01 ng/mL
  concentration at 1.5 h: 5.87 ng/mL
  concentration at 2 h: 12.5 ng/mL
  concentration at 3 h: 18.7 ng/mL
[2]; subject 1 (112 kg), 7.5 mg oral
  plasma concentrations: BLQ
[2]; subject 6 (68 kg), 7.5 mg oral
  plasma concentrations: BLQ
